In ChEMBL document CHEMBL4610023, “An amide-based sulfenamide prodrug of gamma secretase inhibitor BMS-708163 delivers parent drug from an oral conventional solid dosage form in male beagle dog” (Bioorg Med Chem Lett, 2020):
Values after ≈ are worked out from the molar mass of the structure shown.

Tests used:
[1] = Aqueous solubility of compound at pH 2; assay type: physicochemical; conditions: aqueous solution
[2] = Chemical stability of compound in aqueous solution assessed as half life at 100 ug/ml and pH 1; assay type: physicochemical
[3] = Chemical stability of compound in aqueous solution assessed as half life at 100 ug/ml and pH 7.4; assay type: physicochemical
[4] = Aqueous solubility of compound at pH 6.5; assay type: physicochemical; conditions: aqueous solution
[5] = Chemical stability of compound in aqueous solution assessed as half life at 100 ug/ml and pH 4; assay type: physicochemical
[6] = Cmax in Beagle dog at 3 mg/kg, po; assay type: ADME, organism-based, Canis lupus familiaris; parameters: dose 3 mg/kg, route oral; conditions: in vivo
[7] = Drug concentration in Beagle dog plasma at 3 mg/kg, po measured at 24 hrs; assay type: ADME, organism-based, Canis lupus familiaris
[8] = Oral bioavailability in Beagle dog at 3 mg/kg; assay type: ADME, organism-based, Canis lupus familiaris; conditions: in vivo
[9] = Tmax in Beagle dog at 3 mg/kg, po; assay type: ADME, organism-based, Canis lupus familiaris; conditions: in vivo
[10] = AUC (0 to 24 hrs) in Beagle dog at 3 mg/kg, po; assay type: ADME, organism-based, Canis lupus familiaris; parameters: time < 24 hr, dose 3 mg/kg, route oral; conditions: in vivo

Row | solubility [1] [µg/mL] | half-life at 100 ug/ml [2] [h] | half-life at 100 ug/ml [3] [h] | solubility [4] [µg/mL] | half-life at 100 ug/ml [5] [h] | Cmax [6] [nM] | concentration at 24 h [7] [nM] | bioavailability [8] [%] | Tmax [9] [h] | AUC(0-t) at 24 h [10] [µM·h] | SMILES
1 | > 10000 | > 500 | 52 | 321 (≈ 539 µM) | > 500 | – | – | – | – | – | NCCSNC(=O)[C@@H](CCC(F)(F)F)N(Cc1ccc(-c2ncon2)cc1F)S(=O)(=O)c1ccc(Cl)cc1
2 | 3900 (≈ 5960 µM) | > 500 | 15 | 21 (≈ 32.1 µM) | 185 | 707 to 1170 | 90 to 474 | 107 to 115 | 2 | 6.03 to 15.8 | COC(=O)[C@@H](N)CSNC(=O)[C@@H](CCC(F)(F)F)N(Cc1ccc(-c2ncon2)cc1F)S(=O)(=O)c1ccc(Cl)cc1
3 | < 1 | > 500 | 197 | < 1 | > 500 | – | – | – | – | – | N#CCCSNC(=O)[C@@H](CCC(F)(F)F)N(Cc1ccc(-c2ncon2)cc1F)S(=O)(=O)c1ccc(Cl)cc1
4 | 510 (≈ 797 µM) | > 500 | 72 | 260 (≈ 406 µM) | 418 | – | – | – | – | – | N[C@@H](CSNC(=O)[C@@H](CCC(F)(F)F)N(Cc1ccc(-c2ncon2)cc1F)S(=O)(=O)c1ccc(Cl)cc1)C(=O)O
5 | < 1 | > 500 | 268 | < 1 | > 500 | – | – | – | – | – | O=C(NSc1ccccc1)[C@@H](CCC(F)(F)F)N(Cc1ccc(-c2ncon2)cc1F)S(=O)(=O)c1ccc(Cl)cc1
6 | – | – | – | < 1 | – | 881 to 1150 | 98 to 442 | – | 1 to 2 | 5.25 to 14.6 | NC(=O)[C@@H](CCC(F)(F)F)N(Cc1ccc(-c2ncon2)cc1F)S(=O)(=O)c1ccc(Cl)cc1 [AVAGACESTAT]
7 | 4300 (≈ 6440 µM) | > 500 | 23 | 10 (≈ 15 µM) | 258 | – | – | – | – | – | CCOC(=O)[C@@H](N)CSNC(=O)[C@@H](CCC(F)(F)F)N(Cc1ccc(-c2ncon2)cc1F)S(=O)(=O)c1ccc(Cl)cc1
